Data from the supplement of paper PMC13380429.

Legend:
Conditions in all cases: 72 h
[1] = tested on: HepG2; experiment: relative viability EC50 (midpoint between 100% and the lowest measured viability); higher = less toxic
[2] = tested on: Calu-3; experiment: as above
[3] = tested on: U2OS; experiment: as above
[4] = tested on: Caco-2; experiment: as above
[5] = tested on: Vero E6; experiment: as above
[6] = tested on: HepG2; experiment: cell viability relative to DMSO; higher = less toxic
[7] = tested on: Calu-3; experiment: as above
[8] = tested on: U2OS; experiment: as above
[9] = tested on: Caco-2; experiment: as above
[10] = tested on: Vero E6; experiment: as above
[11] = tested on: HepG2; experiment: drug sensitivity score (DSS) for viability; higher = more toxic; extreme values may be limits of the assay
[12] = tested on: Calu-3; experiment: as above
[13] = tested on: U2OS; experiment: as above
[14] = tested on: Caco-2; experiment: as above
[15] = tested on: Vero E6; experiment: as above

Structure (SMILES)	relative viability EC50 [1] [µM]	relative viability EC50 [2] [µM]	relative viability EC50 [3] [µM]	relative viability EC50 [4] [µM]	relative viability EC50 [5] [µM]	cell viability ([6]; 1 nM) [%]	cell viability ([6]; 10 nM) [%]	cell viability ([6]; 100 nM) [%]	cell viability ([6]; 1000 nM) [%]	cell viability ([6]; 10000 nM) [%]	cell viability ([7]; 1 nM) [%]	cell viability ([7]; 10 nM) [%]	cell viability ([7]; 100 nM) [%]	cell viability ([7]; 1000 nM) [%]	cell viability ([7]; 10000 nM) [%]	cell viability ([8]; 1 nM) [%]	cell viability ([8]; 10 nM) [%]	cell viability ([8]; 100 nM) [%]	cell viability ([8]; 1000 nM) [%]	cell viability ([8]; 10000 nM) [%]	cell viability ([9]; 1 nM) [%]	cell viability ([9]; 10 nM) [%]	cell viability ([9]; 100 nM) [%]	cell viability ([9]; 1000 nM) [%]	cell viability ([9]; 10000 nM) [%]	cell viability ([10]; 1 nM) [%]	cell viability ([10]; 10 nM) [%]	cell viability ([10]; 100 nM) [%]	cell viability ([10]; 1000 nM) [%]	cell viability ([10]; 10000 nM) [%]	drug sensitivity score [11]	drug sensitivity score [12]	drug sensitivity score [13]	drug sensitivity score [14]	drug sensitivity score [15]
CC(NCCc1ccc(O)cc1)C(O)c1ccc(O)cc1 (stereo not given) [ritodrine]	> 10	> 10	> 10	> 10	> 10	94.5	102	91.4	95.8	103	102	105	93.7	98.3	101	96.9	102	97	101	105	91.4	97.7	95.5	99.7	105	86.5	93.6	102	98.9	109	0	0	0	0	0
CCN(C)C(=O)Oc1cccc([C@H](C)N(C)C)c1 [rivastigmine]	> 10	> 10	> 10	> 10	> 10	113	102	98	106	98.2	93.5	95	101	98.3	94.4	95.8	99.2	99.9	98.7	103	109	95.5	104	96.7	95.8	101	106	103	106	97.6	0	0	0	0	0
CNCC(=O)O [sarcosine]	> 10	> 10	> 10	> 10	> 10	112	110	88.4	106	107	92.9	98.5	96.7	89.6	97.7	96.1	99.2	99.1	96	107	93.3	93.4	95.5	102	110	93.4	97.8	90.4	103	112	0	0	0	0	0
NC(=O)C(c1ccccc1)(c1ccc(F)cc1)c1ccc(F)cc1 [senicapoc]	> 10	> 10	> 10	> 10	> 10	93.4	98.8	96.4	95.5	97.7	99	96.7	99	102	92.3	102	96.9	104	98.8	98.8	101	105	102	92.4	99.4	96.9	99.1	94.5	97.3	92.9	0	0	0	0	0
N[C@@H](CC(=O)N1CCn2c(nnc2C(F)(F)F)C1)Cc1cc(F)c(F)cc1F [sitagliptin]	> 10	> 10	> 10	> 10	> 10	89.2	98.9	91.1	97.5	88.6	107	100	99.5	106	97.7	97.5	94.6	97.4	94.8	97.7	108	99.5	97.1	102	84.1	97.7	106	90.7	107	102	0	0	0	0.2	0
NCCCNCCCCNCCCN [spermine]	> 10	> 10	> 10	> 10	> 10	93.6	98.4	104	93.1	94.3	99.2	101	81.9	99.2	104	96.5	96.3	96.1	96.8	103	90.2	124	93.5	98	96.7	95.3	94.1	95.8	98.6	106	0	0	0	0	0
Nc1ccc(S(=O)(=O)Nc2ccnn2-c2ccccc2)cc1 [sulfaphenazole]	> 10	> 10	> 10	> 10	> 10	102	99.5	85.5	112	103	97.2	100	101	104	97.2	97.4	97.8	100	99.4	101	97.5	100	102	96.1	94	93.1	102	88.4	99.5	108	0	0	0	0	0
